Bridge positions count the residues as written; N and C are the ends. Square brackets hold non-standard residues; d marks the D form. Peptide text beside a SMILES is read from it. * marks the point of attachment. hPhe(3-Cl-4-CF3) = N[C@@H](CCc1ccc(C(F)(F)F)c(Cl)c1)C(=O)O; NMePhe(4-CF3) = CN[C@@H](Cc1ccc(C(F)(F)F)cc1)C(=O)O; NMePhe(4-Me) = CN[C@@H](Cc1ccc(C)cc1)C(=O)O; NMeGly(cPent) = CN[C@H](C(=O)O)C1CCCC1; NMe3Pal = CN[C@@H](Cc1cccnc1)C(=O)O; NMeCha = CN[C@@H](CC1CCCCC1)C(=O)O; Hyp = O=C(O)[C@@H]1C[C@@H](O)CN1; NMeChg = CN[C@H](C(=O)O)C1CCCCC1; NMeI = CC[C@H](C)[C@H](NC)C(=O)O; NMeD = CN[C@@H](CC(=O)O)C(=O)O; CH2CONHtBu = CC(C)(C)NC(=O)C*; NMeL = CN[C@@H](CC(C)C)C(=O)O; NEtAla = CCN[C@@H](C)C(=O)O; NMeV = CN[C@H](C(=O)O)C(C)C; d(β3hA) = C[C@@H](N)CC(=O)O; NMeC = CN[C@@H](CS)C(=O)O; NMeS = CN[C@@H](CO)C(=O)O; Morpholide = C1CN(*)CCO1; NMeA = CN[C@@H](C)C(=O)O; Piperidide = C1CCN(*)CC1; Pyrrolidide = C1CCN(*)C1; Ac5c = NC1(C(=O)O)CCCC1; Aze = O=C(O)[C@@H]1CCN1; Aib = CC(C)(N)C(=O)O; Isopentyl = CC(C)CC*; NEtG = CCNCC(=O)O; Sar = CNCC(=O)O
Legend:
[1] = test system: Human pancreatic cancer cell line AsPC-1 (G12D mutation Kras); assay: AsPC-1 cell growth inhibition (AsPC-1 CGI); format: cell-based; details: read-out: AsPC-1 cell growth inhibition, 50% growth inhibitory concentration (IC50 value); 96 hours, CellTiter-Glo, values classified in ranges
Protocol: Test compounds were serially dilated with dimethyl sulfoxide, and 200 nL was then dispensed to a U-bottom 96-well plate using Labcyte Echo. […] The cell suspension was dispensed to a. plate containing a test compound at 100 μL per well and incubated at 37° C. in a 5% carbon dioxide gas incubator. 96 hours later, 80 μL of CellTiter-Glo (Promega) was added to each well and fluorescence was measured.

[2] = target: protein-protein interaction between Kras and SOS1 (biotin-tagged human Kras loaded with GDP, His-tagged human SOS1) (Homo sapiens (Human), UniProt P01116, G12D); assay: Protein-protein interaction inhibition between Kras and SOS1 (KrasG12D-SOS PPI) using AlphaScreen; format: biochemical; details: AlphaScreen; biotin-tagged human Kras loaded with GDP, His-tagged human SOS1; read-out: KRAS G12D-SOS PPI IC50;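 also: kras produced in E. coli, Ni-coupled donor beads and streptavidin acceptor beads, excitation 680 nm with emission detected at 520–620 nm via singlet oxygen transfer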

| SMILES | IC50 [1] [nM] | IC50 [2] [nM] |
| --- | --- | --- |
| CC[C@H](C)[C@@H]1NC(=O)[C@H](CC(C)C)N(C)C(=O)C[C@@H](C(=O)N(C)C)N(C)C(=O)[C@H](C2CCCC2)N(C)C(=O)[C@H](C)NC(=O)[C@@H]2CCCN2C(=O)[C@H](CCc2ccc(C(F)(F)F)c(Cl)c2)NC(=O)CN(C)C(=O)[C@H](CC2CCCCC2)N(C)C(=O)[C@@H]2CCN2C(=O)[C@H](C)N(C)C1=O [Compound 314] ([NMeL]I[NMeA][Aze][NMeCha][Sar][hPhe(3-Cl-4-CF3)]PA[NMeGly(cPent)][NMeD]-NMe2; lactam N-11) | > 500 | 2.6 |
| CC[C@H](C)[C@@H]1NC(=O)[C@H](CC(C)C)N(C)C(=O)CSC[C@@H](C(=O)N(C)C)N(C)C(=O)[C@H](C2CCCC2)N(C)C(=O)C2(CCCC2)NC(=O)[C@@H]2CCCN2C(=O)[C@H](CCc2ccc(C(F)(F)F)c(Cl)c2)NC(=O)CN(C)C(=O)[C@H](Cc2ccc(C)cc2)N(C)C(=O)[C@@H]2CCN2C(=O)[C@H](C)N(C)C1=O [Compound 2177] ({CH2CO}-[NMeL]I[NMeA][Aze][NMePhe(4-Me)][Sar][hPhe(3-Cl-4-CF3)]P[Ac5c][NMeGly(cPent)][NMeC]-NMe2; thioether N-11) | > 500 | 250 |
| CC[C@H](C)[C@@H]1NC(=O)[C@H](C)N(C)C(=O)C[C@@H](C(=O)N2CCOCC2)N(C)C(=O)[C@H](C2CCCCC2)N(C)C(=O)C2(CCCC2)NC(=O)[C@H](Cc2cccnc2)N(C)C(=O)[C@H](CCc2ccc(C(F)(F)F)c(Cl)c2)NC(=O)CN(C)C(=O)[C@H](CC2CCCCC2)N(C)C(=O)CN(C)C(=O)CN(C)C1=O [Compound 1718] ([NMeA]I[Sar][Sar][NMeCha][Sar][hPhe(3-Cl-4-CF3)][NMe3Pal][Ac5c][NMeChg][NMeD]-Morpholide; lactam N-11) | > 500 | 0.8 |
| CC[C@H](C)[C@@H]1NC(=O)[C@H](CC(C)C)N(C)C(=O)C[C@@H](C(=O)N(C)C)N(C)C(=O)[C@H](C2CCCC2)N(C)C(=O)C2(CCCC2)NC(=O)[C@@H]2CCCN2C(=O)[C@H](CCc2ccc(C(F)(F)F)c(Cl)c2)NC(=O)CN(CC)C(=O)[C@H](Cc2ccc(C)cc2)N(C)C(=O)[C@@H]2CCN2C(=O)[C@H](C)N(C)C1=O [Compound 5] ([NMeL]I[NMeA][Aze][NMePhe(4-Me)][NEtG][hPhe(3-Cl-4-CF3)]P[Ac5c][NMeGly(cPent)][NMeD]-NMe2; lactam N-11) | ≤ 20 | 0.99 |
| CC[C@H](C)[C@@H]1NC(=O)[C@H](CC(C)C)N(C)C(=O)C[C@@H](C(=O)N2CCCCC2)N(C)C(=O)[C@H](C2CCCCC2)N(C)C(=O)C2(CCCC2)NC(=O)[C@H](C)N(CC)C(=O)[C@H](CCc2ccc(C(F)(F)F)c(Cl)c2)NC(=O)CN(C)C(=O)[C@H](CC2CCCCC2)N(C)C(=O)CN(C)C(=O)CN(C)C1=O [Compound 1045] ([NMeL]I[Sar][Sar][NMeCha][Sar][hPhe(3-Cl-4-CF3)][NEtAla][Ac5c][NMeChg][NMeD]-Piperidide; lactam N-11) | > 500 | 6.7 |
| CC[C@H](C)[C@@H]1NC(=O)[C@H](COCC(=O)NC(C)(C)C)N(C)C(=O)C[C@@H](C)NC(=O)[C@H](CC(C)C)N(C)C(=O)C(C)(C)NC(=O)[C@H](CC(C)C)N(C)C(=O)[C@H](CCc2ccc(C(F)(F)F)c(Cl)c2)NC(=O)CN(C)C(=O)[C@H](COCCC(C)C)N(C)C(=O)CN(C)C(=O)CN(CC)C1=O [Compound 1495] (cyclo([Aib][NMeL][d(β3hA)][NMeS](CH2CONHtBu)I[NEtG][Sar][NMeS](Isopentyl)[Sar][hPhe(3-Cl-4-CF3)][NMeL])) | > 500 | 120 |
| CC[C@H](C)[C@@H]1NC(=O)[C@H](CO)N(C)C(=O)C[C@@H](C(=O)N2CCCCC2)N(C)C(=O)[C@H](C(C)C)N(C)C(=O)C2(CCCC2)NC(=O)[C@@H]2CCCN2C(=O)[C@H](CCc2ccc(C(F)(F)F)c(Cl)c2)NC(=O)CN(C)C(=O)[C@H](CC2CCCCC2)N(C)C(=O)[C@@H]2CCN2C(=O)[C@H](C)N(C)C1=O [Compound 1837] ([NMeS]I[NMeA][Aze][NMeCha][Sar][hPhe(3-Cl-4-CF3)]P[Ac5c][NMeV][NMeD]-Piperidide; lactam N-11) | > 500 | 2 |
| CCO[C@@H]1C[C@H]2C(=O)NC3(CCCC3)C(=O)N(C)[C@@H]([C@@H](C)CC)C(=O)N(C)[C@H](C(=O)N3CCCC3)CC(=O)N(C)[C@@H](CC(C)C)C(=O)N[C@@H]([C@@H](C)CC)C(=O)N(C)[C@@H](C)C(=O)N3CC[C@H]3C(=O)N(C)[C@@H](Cc3ccc(C(F)(F)F)cc3)C(=O)N(C)CC(=O)N[C@@H](CCc3ccc(C(F)(F)F)c(Cl)c3)C(=O)N2C1 [Compound 1335] ([NMeL]I[NMeA][Aze][NMePhe(4-CF3)][Sar][hPhe(3-Cl-4-CF3)][Hyp](Et)[Ac5c][NMeI][NMeD]-Pyrrolidide; lactam N-11) | ≤ 20 | 0.49 |
